Data reported in PMC3185947 (British Journal of Cancer, 2011).
Like-named read-outs stand apart in the source and are kept apart here. Marks after values point to notes of the source that are not given here.

Conditions: in vivo; for OSI-420 AUC0–24 / OSI-420 Cmax / OSI-420 Tmax, median (range) / OSI-420 Tmax: human
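Note: pharmacokinetic parameters derived by non-compartmental analysis.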

## C#Cc1cccc(Nc2ncnc3cc(OCCOC)c(OCCO)cc23)c1 [OSI-420]
150 mg
  OSI-420 AUC0–24: 2.56 (0.599–10.5) ^a μg h ml^−1
  OSI-420 Cmax: 0.165 (0.0452–0.568) μg ml^−1
  OSI-420 Tmax, median (range): 4.0 (1.05–23.9) h
200 mg
  OSI-420 AUC0–24: 4.55 (0.996–19.2) μg h ml^−1
  OSI-420 Cmax: 0.278 (0.0617–0.864) μg ml^−1
  OSI-420 Tmax, median (range): 2.0 (1.00–24.0) h
225 mg
  OSI-420 AUC0–24: 4.10 (1.57–19.7) μg h ml^−1
  OSI-420 Cmax: 0.260 (0.116–0.908) μg ml^−1
  OSI-420 Tmax, median (range): 2.0 (0.930–8.00) h
250 mg
  OSI-420 AUC0–24: 3.32 (1.52–16.4) μg h ml^−1
  OSI-420 Cmax: 0.219 (0.119–0.760) μg ml^−1
  OSI-420 Tmax, median (range): 4.0 (1.00–8.00) h
275 mg
  OSI-420 AUC0–24: 3.62 (1.51–15.7) μg h ml^−1
  OSI-420 Cmax: 0.223 (0.107–0.929) μg ml^−1
  OSI-420 Tmax, median (range): 2.0 (1.00–8.02) h
300 mg
  OSI-420 AUC0–24: 4.23 (1.38–6.32) μg h ml^−1
  OSI-420 Cmax: 0.273 (0.133–0.346) μg ml^−1
  OSI-420 Tmax, median (range): 2.0 (1.00–2.03) h
325 mg
  OSI-420 AUC0–24: 4.18 (2.26, 6.09) μg h ml^−1
  OSI-420 Cmax: 0.344 (0.222, 0.426) μg ml^−1
  OSI-420 Tmax, median (range): 1.5 (2.00, 1.00) h
350 mg
  OSI-420 AUC0–24: 2.33 (2.94, 1.72) μg h ml^−1
  OSI-420 Cmax: 0.169 (0.243, 0.0945) μg ml^−1
  OSI-420 Tmax, median (range): 2.0 (2.00, 2.03) h
375 mg
  OSI-420 AUC0–24: 3.80 µg·h/mL
  OSI-420 Cmax: 0.253 µg/mL
  OSI-420 Tmax: 1.0 h
400 mg
  OSI-420 AUC0–24: 6.84 µg·h/mL
  OSI-420 Cmax: 0.454 µg/mL
  OSI-420 Tmax: 2.0 h
425 mg
  OSI-420 AUC0–24: 5.02 µg·h/mL
  OSI-420 Cmax: 0.293 µg/mL
  OSI-420 Tmax: 2.0 h
450 mg
  OSI-420 AUC0–24: 8.78 µg·h/mL
  OSI-420 Cmax: 0.489 µg/mL
  OSI-420 Tmax: 4.0 h
  Interpatient and intrapatient variability of PK: High
